Laboratory results reported in patent US12121521B2, “Uses of salt-inducible kinase (SIK) inhibitors for treating osteoporosis” (The General Hospital Corporation, priority 2016, dated 2024).

Assays:
Assay in all cases: ScanEDGE kinase panel (DiscoverX)
Assay type in all cases: binding
[1] = molecular target: T1, PRKCE (Homo sapiens, UniProt Q02156); conditions: read-out: % of control activity at 71 nM
T1 construct: T7 phage fusion (most kinases) or DNA tag for qPCR (kinases made in HEK-293); purchased DiscoverX; host or cells: E. coli BL21-derived host (T7 phage) or HEK-293
Description: (§1) ScanEDGE kinase assays paneling specificity across a panel of 96 representative kinases were performed by DiscoverX (Fremont, CA). For most assays, kinase-tagged T7 phage strains were grown in parallel in 24-well blocks in an E. coli host derived from the BL21 strain. Bacteria were grown to log phase and infected with T7 phage from frozen stock (MOI=0.4) and incubated with shaking at 32° C. until lysis (90-150 minutes). The lysates were centrifuged (6000×g) and filtered (0.2 μm) to remove cell debris. The remaining kinases were produced in HEK-293 cells and subsequently tagged with DNA for qPCR detection. […] The liganded beads were blocked with excess biotin and washing with blocking buffer (SeaBlock (Pierce), 1% BSA, 0.05% Tween 20, 1 mM DTT) to remove unbound ligand and to reduce non-specific phage binding. […] Test compounds were prepared as 40× stocks in 100% DMSO and directly diluted into the assay. All reactions were performed in polypropylene 384 well plates in a final volume of 40 μl. […] The kinase concentration in the eluates was measured by qPCR.

[2] = molecular target: T2, PAK4 (Homo sapiens, UniProt O96013); conditions: read-out: % of control activity at 71 nM
T2 construct: T7 phage fusion (most kinases) or DNA tag for qPCR (kinases made in HEK-293); purchased DiscoverX; host or cells: E. coli BL21-derived host (T7 phage) or HEK-293
Description: as §1

[3] = molecular target: T3, ROCK2 (Homo sapiens, UniProt O75116); conditions: read-out: % of control activity at 71 nM
T3 construct: T7 phage fusion (most kinases) or DNA tag after HEK-293 expression; purchased DiscoverX (Fremont, CA), ScanEDGE; host or cells: T7 phage in E. coli BL21-derived host, or HEK-293
Description: as §1

[4] = molecular target: T4, MEK2 (Homo sapiens, UniProt P36507); conditions: read-out: % of control activity at 71 nM
T4 construct: T7 phage fusion (most kinases) or DNA tag for qPCR (kinases made in HEK-293); purchased DiscoverX; host or cells: E. coli BL21-derived host (T7 phage) or HEK-293
Description: as §1

[5] = molecular target: T5, QSK (SIK3) (Homo sapiens, UniProt Q9Y2K2); conditions: QSK refers to SIK3, read-out: % of control activity at 71 nM
T5 construct: T7 phage fusion (most kinases) or DNA tag after HEK-293 expression; purchased DiscoverX (Fremont, CA), ScanEDGE; host or cells: T7 phage in E. coli BL21-derived host, or HEK-293
Description: as §1

[6] = molecular target: T6, EPHA2 (Homo sapiens, UniProt P29317); conditions: read-out: % of control activity at 71 nM
T6 construct: T7 phage fusion (most kinases) or DNA tag for qPCR (HEK-293-made kinases); purchased DiscoverX; host or cells: E. coli BL21-derived host (T7 phage) or HEK-293
Description: as §1

[7] = molecular target: T7, PAK1 (Homo sapiens, UniProt Q13153); conditions: read-out: % of control activity at 71 nM
T7 construct: T7 phage fusion (most kinases) or DNA tag for qPCR (kinases made in HEK-293); purchased DiscoverX; host or cells: E. coli BL21-derived host (T7 phage) or HEK-293
Description: as §1

[8] = molecular target: T8, PLK1 (Homo sapiens, UniProt P53350); conditions: read-out: % of control activity at 71 nM
T8 construct: T7 phage fusion (most kinases) or DNA tag for qPCR (kinases made in HEK-293); purchased DiscoverX; host or cells: E. coli BL21-derived host (T7 phage) or HEK-293
Description: as §1

[9] = molecular target: T9, CHEK1 (Homo sapiens, UniProt O14757); conditions: read-out: % of control activity at 71 nM
T9 construct: T7 phage fusion (most kinases) or DNA tag for qPCR (HEK-293-made kinases); purchased DiscoverX (Fremont, CA); host or cells: E. coli BL21-derived host (T7 phage) or HEK-293
Description: as §1

[10] = molecular target: T10, MARK1 (Homo sapiens, UniProt Q9P0L2); conditions: read-out: % of control activity at 71 nM
T10 construct: T7 phage fusion (most kinases) or DNA tag for qPCR (HEK-293-made kinases); purchased DiscoverX; host or cells: E. coli BL21-derived host (T7 phage) or HEK-293
Description: as §1

[11] = molecular target: T11, HCK (Homo sapiens, UniProt P08631); conditions: read-out: % of control activity at 71 nM
T11 construct: T7 phage fusion (most kinases) or DNA tag for qPCR (HEK-293-made kinases); purchased DiscoverX; host or cells: E. coli BL21-derived host (T7 phage) or HEK-293
Description: as §1

[12] = molecular target: T12, ERBB2 (Homo sapiens, UniProt P04626); conditions: read-out: % of control activity at 71 nM
T12 construct: T7 phage fusion (most kinases) or DNA tag for qPCR (HEK-293-made kinases); purchased DiscoverX; host or cells: E. coli BL21-derived host (T7 phage) or HEK-293
Description: as §1

[13] = molecular target: T13, PIM1 (Homo sapiens, UniProt P11309); conditions: read-out: % of control activity at 71 nM
T13 construct: T7 phage fusion (most kinases) or DNA tag for qPCR (kinases made in HEK-293); purchased DiscoverX; host or cells: E. coli BL21-derived host (T7 phage) or HEK-293
Description: as §1

[14] = molecular target: T14, TRKA (Homo sapiens, UniProt P04629); conditions: read-out: % of control activity at 71 nM
T14 construct: T7 phage fusion (most kinases) or DNA tag after HEK-293 expression; purchased DiscoverX (Fremont, CA), ScanEDGE; host or cells: T7 phage in E. coli BL21-derived host, or HEK-293
Description: as §1

[15] = molecular target: T15, p38-alpha (Homo sapiens, UniProt Q16539); conditions: read-out: % of control activity at 71 nM
T15 construct: T7 phage fusion (most kinases) or DNA tag for qPCR (kinases made in HEK-293); purchased DiscoverX; host or cells: E. coli BL21-derived host (T7 phage) or HEK-293
Description: as §1

[16] = molecular target: T16, CSNK1G2 (Homo sapiens, UniProt P78368); conditions: read-out: % of control activity at 71 nM
T16 construct: T7 phage fusion (most kinases) or DNA tag for qPCR (HEK-293-made kinases); purchased DiscoverX (Fremont, CA); host or cells: E. coli BL21-derived host (T7 phage) or HEK-293
Description: as §1

[17] = molecular target: T17, LCK (Homo sapiens, UniProt P06239); conditions: read-out: % of control activity at 71 nM
T17 construct: T7 phage fusion (most kinases) or DNA tag for qPCR (HEK-293-made kinases); purchased DiscoverX; host or cells: E. coli BL21-derived host (T7 phage) or HEK-293
Description: as §1

[18] = molecular target: T18, JAK2 (Homo sapiens, UniProt O60674); conditions: read-out: % of control activity at 71 nM
T18 construct: T7 phage fusion (most kinases) or DNA tag for qPCR (HEK-293-made kinases); purchased DiscoverX; host or cells: E. coli BL21-derived host (T7 phage) or HEK-293
Description: as §1

[19] = molecular target: T19, RAF1 (Homo sapiens, UniProt P04049); conditions: read-out: % of control activity at 71 nM
T19 construct: T7 phage fusion (most kinases) or DNA tag after HEK-293 expression; purchased DiscoverX (Fremont, CA), ScanEDGE; host or cells: T7 phage in E. coli BL21-derived host, or HEK-293
Description: as §1

[20] = molecular target: T20, BTK (Homo sapiens, UniProt Q06187); conditions: read-out: % of control activity at 71 nM
T20 construct: T7 phage fusion (most kinases) or DNA tag for qPCR (HEK-293-made kinases); purchased DiscoverX (Fremont, CA); host or cells: E. coli BL21-derived host (T7 phage) or HEK-293
Description: as §1

[21] = molecular target: T21, ERBB4 (Homo sapiens, UniProt Q15303); conditions: read-out: % of control activity at 71 nM
T21 construct: T7 phage fusion (most kinases) or DNA tag for qPCR (HEK-293-made kinases); purchased DiscoverX; host or cells: E. coli BL21-derived host (T7 phage) or HEK-293
Description: as §1

[22] = molecular target: T22, CSF1R (Homo sapiens, UniProt P07333); conditions: read-out: % of control activity at 71 nM
T22 construct: T7 phage fusion (most kinases) or DNA tag for qPCR (HEK-293-made kinases); purchased DiscoverX (Fremont, CA); host or cells: E. coli BL21-derived host (T7 phage) or HEK-293
Description: as §1

[23] = molecular target: T23, ABL1 (Homo sapiens, UniProt P00519); conditions: read-out: % of control activity at 71 nM
T23 construct: T7 phage fusion (most kinases) or DNA tag for qPCR (HEK-293-made kinases); purchased DiscoverX (Fremont, CA); host or cells: E. coli BL21-derived host (T7 phage) or HEK-293
Description: as §1

[24] = molecular target: T24, ARK5 (Homo sapiens, UniProt O60285); conditions: read-out: % of control activity at 71 nM
T24 construct: T7 phage fusion (most kinases) or DNA tag for qPCR (HEK-293-made kinases); purchased DiscoverX (Fremont, CA); host or cells: E. coli BL21-derived host (T7 phage) or HEK-293
Description: as §1

[25] = molecular target: T25, SIK (SIK1) (Homo sapiens, UniProt P57059); conditions: SIK refers to SIK1, read-out: % of control activity at 71 nM
T25 construct: T7 phage fusion (most kinases) or DNA tag after HEK-293 expression; purchased DiscoverX (Fremont, CA), ScanEDGE; host or cells: T7 phage in E. coli BL21-derived host, or HEK-293
Description: as §1

[26] = molecular target: T26, FLT3 (Homo sapiens, UniProt P36888); conditions: read-out: % of control activity at 71 nM
T26 construct: T7 phage fusion (most kinases) or DNA tag for qPCR (HEK-293-made kinases); purchased DiscoverX; host or cells: E. coli BL21-derived host (T7 phage) or HEK-293
Description: as §1

[27] = molecular target: T27, VEGFR2 (Homo sapiens, UniProt P35968); conditions: read-out: % of control activity at 71 nM
T27 construct: T7 phage fusion (most kinases) or DNA tag after HEK-293 expression; purchased DiscoverX (Fremont, CA), ScanEDGE; host or cells: T7 phage in E. coli BL21-derived host, or HEK-293
Description: as §1

[28] = molecular target: T28, PKAC-alpha (Homo sapiens, UniProt P17612); conditions: read-out: % of control activity at 71 nM
T28 construct: T7 phage fusion (most kinases) or DNA tag for qPCR (kinases made in HEK-293); purchased DiscoverX; host or cells: E. coli BL21-derived host (T7 phage) or HEK-293
Description: as §1

[29] = molecular target: T29, ZAP70 (Homo sapiens, UniProt P43403); conditions: read-out: % of control activity at 71 nM
T29 construct: T7 phage fusion (most kinases) or DNA tag after HEK-293 expression; purchased DiscoverX (Fremont, CA), ScanEDGE; host or cells: T7 phage in E. coli BL21-derived host, or HEK-293
Description: as §1

[30] = molecular target: T30, SNARK (Homo sapiens, UniProt Q9H093); conditions: read-out: % of control activity at 71 nM
T30 construct: T7 phage fusion (most kinases) or DNA tag after HEK-293 expression; purchased DiscoverX (Fremont, CA), ScanEDGE; host or cells: T7 phage in E. coli BL21-derived host, or HEK-293
Description: as §1

[31] = molecular target: T31, HIPK2 (Homo sapiens, UniProt Q9H2X6); conditions: read-out: % of control activity at 71 nM
T31 construct: T7 phage fusion (most kinases) or DNA tag for qPCR (HEK-293-made kinases); purchased DiscoverX; host or cells: E. coli BL21-derived host (T7 phage) or HEK-293
Description: as §1

[32] = molecular target: T32, ALK (Homo sapiens, UniProt Q9UM73); conditions: read-out: % of control activity at 71 nM
T32 construct: T7 phage fusion (most kinases) or DNA tag for qPCR (HEK-293-made kinases); purchased DiscoverX (Fremont, CA); host or cells: E. coli BL21-derived host (T7 phage) or HEK-293
Description: as §1

T4 sequence (P36507 whole entry, the tested form may be a part): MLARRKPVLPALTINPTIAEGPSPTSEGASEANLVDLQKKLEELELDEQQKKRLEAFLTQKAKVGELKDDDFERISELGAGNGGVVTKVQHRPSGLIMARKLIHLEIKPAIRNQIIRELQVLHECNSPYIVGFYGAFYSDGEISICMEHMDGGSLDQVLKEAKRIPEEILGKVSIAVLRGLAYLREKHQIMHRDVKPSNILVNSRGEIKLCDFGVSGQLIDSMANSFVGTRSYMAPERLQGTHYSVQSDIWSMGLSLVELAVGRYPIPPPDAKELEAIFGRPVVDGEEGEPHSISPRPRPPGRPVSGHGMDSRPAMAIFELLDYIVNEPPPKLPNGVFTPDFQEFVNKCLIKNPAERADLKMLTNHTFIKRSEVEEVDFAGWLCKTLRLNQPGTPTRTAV
T21 sequence (Q15303 26-1308): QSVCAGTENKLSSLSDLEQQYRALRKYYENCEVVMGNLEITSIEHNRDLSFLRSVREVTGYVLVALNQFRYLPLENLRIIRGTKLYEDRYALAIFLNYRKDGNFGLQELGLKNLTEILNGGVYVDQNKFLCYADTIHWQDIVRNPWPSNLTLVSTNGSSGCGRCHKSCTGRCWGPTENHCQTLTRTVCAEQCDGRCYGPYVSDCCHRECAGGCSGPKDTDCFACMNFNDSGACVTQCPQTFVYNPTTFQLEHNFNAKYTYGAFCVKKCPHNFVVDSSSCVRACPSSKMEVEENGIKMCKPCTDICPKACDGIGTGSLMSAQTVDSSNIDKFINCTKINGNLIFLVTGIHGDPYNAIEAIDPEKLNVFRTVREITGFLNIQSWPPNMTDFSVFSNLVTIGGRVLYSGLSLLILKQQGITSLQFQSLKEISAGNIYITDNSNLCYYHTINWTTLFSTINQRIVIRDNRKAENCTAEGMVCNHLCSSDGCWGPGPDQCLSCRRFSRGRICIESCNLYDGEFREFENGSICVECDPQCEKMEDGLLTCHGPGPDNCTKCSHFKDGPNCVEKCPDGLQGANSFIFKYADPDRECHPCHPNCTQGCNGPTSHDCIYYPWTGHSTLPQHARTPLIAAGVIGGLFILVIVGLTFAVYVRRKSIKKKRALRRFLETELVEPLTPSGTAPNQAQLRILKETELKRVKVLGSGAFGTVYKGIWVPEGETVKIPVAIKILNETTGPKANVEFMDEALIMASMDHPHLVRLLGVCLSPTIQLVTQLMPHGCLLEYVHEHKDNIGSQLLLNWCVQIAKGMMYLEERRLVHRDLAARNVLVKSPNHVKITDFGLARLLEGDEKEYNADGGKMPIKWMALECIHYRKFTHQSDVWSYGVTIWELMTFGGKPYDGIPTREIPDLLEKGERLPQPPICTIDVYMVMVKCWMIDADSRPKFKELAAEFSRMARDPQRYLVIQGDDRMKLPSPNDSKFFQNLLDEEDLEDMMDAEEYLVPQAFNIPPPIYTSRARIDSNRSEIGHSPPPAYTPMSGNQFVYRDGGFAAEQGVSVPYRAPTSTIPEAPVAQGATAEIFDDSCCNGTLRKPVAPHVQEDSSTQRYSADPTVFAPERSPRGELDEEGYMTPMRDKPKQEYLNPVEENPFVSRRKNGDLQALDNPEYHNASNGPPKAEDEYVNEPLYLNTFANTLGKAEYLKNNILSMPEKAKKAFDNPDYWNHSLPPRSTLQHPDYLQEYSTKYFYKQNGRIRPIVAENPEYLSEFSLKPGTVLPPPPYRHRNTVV
T19 sequence (P04049 whole entry, the tested form may be a part): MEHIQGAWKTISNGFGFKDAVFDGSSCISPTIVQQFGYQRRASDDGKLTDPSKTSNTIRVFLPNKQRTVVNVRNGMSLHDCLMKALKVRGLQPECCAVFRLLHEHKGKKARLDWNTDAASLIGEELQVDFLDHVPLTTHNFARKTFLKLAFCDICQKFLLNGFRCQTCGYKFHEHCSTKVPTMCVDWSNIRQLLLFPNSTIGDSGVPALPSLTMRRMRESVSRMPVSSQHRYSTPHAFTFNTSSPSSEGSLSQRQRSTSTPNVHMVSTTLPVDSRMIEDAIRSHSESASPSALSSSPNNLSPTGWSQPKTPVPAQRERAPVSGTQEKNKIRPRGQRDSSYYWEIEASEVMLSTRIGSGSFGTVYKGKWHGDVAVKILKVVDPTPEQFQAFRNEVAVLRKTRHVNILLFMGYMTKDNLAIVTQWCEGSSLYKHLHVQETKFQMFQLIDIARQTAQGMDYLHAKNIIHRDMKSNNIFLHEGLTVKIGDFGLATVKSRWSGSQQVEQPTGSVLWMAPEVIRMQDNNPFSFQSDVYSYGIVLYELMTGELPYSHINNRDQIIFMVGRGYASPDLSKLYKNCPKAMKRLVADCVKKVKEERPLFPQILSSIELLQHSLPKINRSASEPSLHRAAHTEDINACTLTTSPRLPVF
T23 sequence (P00519 whole entry, the tested form may be a part): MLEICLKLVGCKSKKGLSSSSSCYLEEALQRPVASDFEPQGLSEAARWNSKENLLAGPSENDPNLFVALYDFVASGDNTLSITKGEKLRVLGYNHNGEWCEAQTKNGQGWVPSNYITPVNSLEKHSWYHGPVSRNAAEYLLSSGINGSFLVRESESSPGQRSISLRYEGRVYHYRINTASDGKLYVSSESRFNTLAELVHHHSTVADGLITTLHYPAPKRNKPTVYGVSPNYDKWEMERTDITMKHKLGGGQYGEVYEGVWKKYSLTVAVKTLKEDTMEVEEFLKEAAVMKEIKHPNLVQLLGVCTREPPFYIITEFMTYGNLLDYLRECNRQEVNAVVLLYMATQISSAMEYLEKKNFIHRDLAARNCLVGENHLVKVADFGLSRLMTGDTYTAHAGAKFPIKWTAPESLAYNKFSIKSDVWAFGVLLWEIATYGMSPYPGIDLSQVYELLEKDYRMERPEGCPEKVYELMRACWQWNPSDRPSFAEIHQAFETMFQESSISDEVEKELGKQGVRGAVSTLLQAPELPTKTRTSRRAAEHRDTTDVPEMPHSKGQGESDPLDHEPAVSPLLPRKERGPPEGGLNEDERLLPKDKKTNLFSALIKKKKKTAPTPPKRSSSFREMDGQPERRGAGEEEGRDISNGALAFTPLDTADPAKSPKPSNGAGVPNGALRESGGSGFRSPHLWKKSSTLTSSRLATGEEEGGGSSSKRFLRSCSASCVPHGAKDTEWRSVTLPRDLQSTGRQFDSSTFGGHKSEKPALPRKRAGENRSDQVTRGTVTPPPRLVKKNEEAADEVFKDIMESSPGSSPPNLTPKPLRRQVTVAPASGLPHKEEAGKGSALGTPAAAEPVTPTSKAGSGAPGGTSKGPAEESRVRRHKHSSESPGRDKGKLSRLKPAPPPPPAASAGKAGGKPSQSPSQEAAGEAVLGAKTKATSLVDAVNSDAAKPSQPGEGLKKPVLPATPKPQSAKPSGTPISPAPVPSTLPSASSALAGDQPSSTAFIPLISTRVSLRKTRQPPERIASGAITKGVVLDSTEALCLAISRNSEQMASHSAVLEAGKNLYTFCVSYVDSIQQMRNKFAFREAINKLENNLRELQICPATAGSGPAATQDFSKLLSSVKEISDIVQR
T3 sequence (O75116 whole entry, the tested form may be a part): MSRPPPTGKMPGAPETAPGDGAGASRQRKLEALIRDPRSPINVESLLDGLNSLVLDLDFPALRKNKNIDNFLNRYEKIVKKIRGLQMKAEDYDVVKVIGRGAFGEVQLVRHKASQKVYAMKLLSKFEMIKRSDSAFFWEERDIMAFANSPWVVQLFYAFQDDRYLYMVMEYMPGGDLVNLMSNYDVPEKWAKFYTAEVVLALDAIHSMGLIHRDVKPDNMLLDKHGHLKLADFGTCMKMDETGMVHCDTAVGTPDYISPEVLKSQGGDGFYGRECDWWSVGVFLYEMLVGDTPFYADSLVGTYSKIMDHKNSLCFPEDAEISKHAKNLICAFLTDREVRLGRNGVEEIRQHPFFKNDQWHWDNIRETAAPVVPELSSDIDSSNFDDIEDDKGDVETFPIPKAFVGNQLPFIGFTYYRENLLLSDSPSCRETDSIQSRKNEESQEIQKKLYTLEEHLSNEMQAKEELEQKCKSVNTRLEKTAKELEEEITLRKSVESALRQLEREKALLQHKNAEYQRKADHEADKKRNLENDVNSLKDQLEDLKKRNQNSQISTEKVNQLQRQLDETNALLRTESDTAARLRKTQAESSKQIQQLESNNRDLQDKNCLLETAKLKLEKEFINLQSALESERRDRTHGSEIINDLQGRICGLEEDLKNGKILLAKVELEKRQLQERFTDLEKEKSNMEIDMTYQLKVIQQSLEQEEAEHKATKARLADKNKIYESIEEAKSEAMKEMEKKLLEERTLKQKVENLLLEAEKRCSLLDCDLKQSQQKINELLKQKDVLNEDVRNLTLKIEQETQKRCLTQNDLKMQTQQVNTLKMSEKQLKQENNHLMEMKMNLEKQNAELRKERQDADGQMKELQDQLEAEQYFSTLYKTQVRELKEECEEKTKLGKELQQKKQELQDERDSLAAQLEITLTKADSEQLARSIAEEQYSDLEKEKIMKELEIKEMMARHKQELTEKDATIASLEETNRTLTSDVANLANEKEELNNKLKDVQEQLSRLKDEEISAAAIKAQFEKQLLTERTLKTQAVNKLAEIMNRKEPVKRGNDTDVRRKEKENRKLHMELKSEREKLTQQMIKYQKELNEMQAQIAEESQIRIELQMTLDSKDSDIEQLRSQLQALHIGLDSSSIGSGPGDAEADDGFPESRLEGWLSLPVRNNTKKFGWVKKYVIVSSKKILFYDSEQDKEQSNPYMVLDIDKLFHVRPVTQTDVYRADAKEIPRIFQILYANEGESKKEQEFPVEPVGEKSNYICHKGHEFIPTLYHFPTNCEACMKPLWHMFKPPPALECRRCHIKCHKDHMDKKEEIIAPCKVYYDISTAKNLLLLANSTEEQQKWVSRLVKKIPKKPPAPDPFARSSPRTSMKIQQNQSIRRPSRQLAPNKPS

## COc1ccc(N2C(=O)N(c3c(C)cccc3C)Cc3cnc(Nc4ccc(C5CCN(C)CC5)c(OC)c4)nc32)c(OC)c1 [YKL-05-093]
[1]
  remaining binding at 0.071 µM: 92%
[2]
  remaining binding at 0.071 µM: 88%
[3]
  remaining binding at 0.071 µM: 70%
[4]
  remaining binding at 0.071 µM: 12%
[5]
  remaining binding at 0.071 µM: 5.3%
[6]
  remaining binding at 0.071 µM: 7.1%
[7]
  remaining binding at 0.071 µM: 6.6%
[8]
  remaining binding at 0.071 µM: 100%
[9]
  remaining binding at 0.071 µM: 42%
[10]
  remaining binding at 0.071 µM: 84%
[11]
  remaining binding at 0.071 µM: 1.2%
[12]
  remaining binding at 0.071 µM: 3.5%
[13]
  remaining binding at 0.071 µM: 89%
[14]
  remaining binding at 0.071 µM: 74%
[15]
  remaining binding at 0.071 µM: 0.95%
[16]
  remaining binding at 0.071 µM: 100%
[17]
  remaining binding at 0.071 µM: 0.75%
[18]
  remaining binding at 0.071 µM: 13%
[19]
  remaining binding at 0.071 µM: 100%
[20]
  remaining binding at 0.071 µM: 0.45%
[21]
  remaining binding at 0.071 µM: 6.1%
[22]
  remaining binding at 0.071 µM: 0.85%
[23]
  remaining binding at 0.071 µM: 0.2%
[24]
  remaining binding at 0.071 µM: 77%
[25]
  remaining binding at 0.071 µM: 0.6%
[26]
  remaining binding at 0.071 µM: 20%
[27]
  remaining binding at 0.071 µM: 26%
[28]
  remaining binding at 0.071 µM: 100%
[29]
  remaining binding at 0.071 µM: 52%
[30]
  remaining binding at 0.071 µM: 6%
[31]
  remaining binding at 0.071 µM: 100%
[32]
  remaining binding at 0.071 µM: 23%
